# Assay results as given in patent publication US20230040415A1 (PureTech LYT 100, Inc., priority 2020, published 2023).
# Legend:
# L929 cells [1] = experiment: TGF-induced collagen synthesis in L929 cells, 96-well plate format (SIRCOL); type: cell-based; conditions: 500 μM
# Procedure: Five thousand L929 cells were plated in complete DMEN and incubated until confluency for 3 days. Medium was removed and complete DMEM containing Prolin (20 μg/ml) and ascorbic acid (10 μM) was added. […] Cells were further incubated for 72 hrs. Supernatant was removed, 0.5% gluteraldehyde was added for 30 min at RT, removed, washed 3× with dd water, 0.5 M acetic acid was added for 30 min at RT, removed, washed with water, air dried and 100 μl SIRCOL dye was added for 5 h at RT. Dye was removed, plate was washed extensively under running water, air dried and 200 μl of 0.5 M NaOH was added, plates were shaken at RT for 1 h, and OD was determined at 600 nm.
# L929 cells [2] = experiment: TGF-induced collagen synthesis in L929 cells, 6-wells (SIRCOL); type: cell-based; conditions: 500 μM
# Procedure: 100,000 L929 cells were plated in complete DMEN and incubated until confluency for 3 days. Medium was removed and complete DMEM containing Prolin (20 μg/ml) and ascorbic acid (10 μM) was added. […] Cells were further incubated for 72 hrs. Supernatant was removed, cells were washed with cold PBS, 1 ml SIRCOL reagent was added onto the cells and cells were scraped off, samples were shaken for 5 h. at RT, centrifuged at 10.000 rpm for 5 min, supernatant was removed, pellet was dissolved in 0.5 M acetic acid to remove unbound dye, and re-centrifuged at 10.000 rpm for 5 min, supernatant was removed and final pelet was dissolved in 1 ml 0.5M NaOH, shaken at RT for 5 h, 100 μl of resulted solution was placed in 96-well and O.D was determined at 600.
# [3] = system: mouse tail model of lymphedema; experiment: Mouse tail model of lymphedema; type: in vivo; conditions: once daily oral gavage, by 5 weeks; 7 animals per group
# L929 cells [4] = experiment: TGF-induced soluble collagen synthesis in L929 cells (ELISA); type: cell-based; conditions: 500 μM
# Procedure: Five thousand L929 cells were plated in complete DMEN and incubated until confluency for 3 days. Medium was removed and complete DMEM containing Prolin (20 μg/ml) and ascorbic acid (10 μM) was added. […] Cells were further incubated for 72 hrs. 200 μl supernatant of 96-well SIRCOL plate was placed onto ELISA plate and incubated 0/N. Next day, supernatant was removed and 100 ul of 1% BSA in PBST was added and incubated for 2 h at RT, BSA was removed, plate was washed 3× with 200 μl of PBST, and anti-collagen type I a.b was added at 1:2000 dilution (prepared in %1 BSA in PBST), incubated at RT for 1 h, primary a.b was removed, plate was washed 3× with 200 μl PBST, and secondary anti-goat HRP was added at 1:2000 dilution, incubate at RT for 1 h, removed, plate was washed 3× with 200 μl PBST and 100 μl of TMB solution was added for color development for 15 min, then 100 μl of 2 N H2SO4 was added to stop the reaction and O.D of developed yellow color was determined at 450 nm.
# L929 cells [5] = experiment: Survival of L929 cells (MTT); type: cell-based; conditions: 500 μM, 72 hrs
# Procedure: Five thousand L929 cells were plated in completed DMEN and incubated until confluency for 3 days. Medium was removed and complete DMEM containing Prolin (20 μg/ml) and ascorbic acid (10 uM) was added. […], of medium was removed, […], MTT solution was added for 4 hrs, then 100 μl of DMSO was added, and absorbance of developed dark pink color was determined at […].
structure (smiles),measurement,setting,value
"[2H]C([2H])([2H])c1ccc(=O)n(-c2ccccc2)c1 [LYT-100, 5-(methyl-d3)-1-phenylpyridin-2-(1H)-one]",total collagen level in the absence of TGF-β induction,L929 cells [1],significantly inhibited or reduced
same,TGF-β-induced total collagen levels,"L929 cells [1]; TGF-β 5 ng/ml, 72 hrs",significantly inhibited or reduced
same,collagen synthesis in the absence of added TGF-β,L929 cells [2],significantly inhibits
same,TGF-induced collagen synthesis,"L929 cells [2]; TGF-β 5 ng/ml, 72 hrs",inhibits
same,tail swelling vs carboxymethylcellulose control,[3],significantly reduced swelling
same,soluble collagen levels in the absence of TGF-β-induction,L929 cells [4],significantly reduced
same,TGF-β-induced soluble collagen levels,"L929 cells [4]; TGF-β 5 ng/ml, 72 hrs",significantly inhibits
same,survival of L929 cells,L929 cells [5],does not affect survival
